The source of these data is patent US9145398B2, “Methods of treating CXCR4-expressing cancers” (University of Louisville Research Foundation, Inc., priority 2010, dated 2015).

Molecules are shown by their SMILES.

Data set [1] deals with hCXCR4-GFP. Put plainly: Intracellular calcium mobilization assay, hCXCR4-GFP expressing 300.19 cells, CXCL12. The note with it: 50 μM test compound. It counts as cell-based, human. How it is done: (§1) Intracellular Calcium Mobilization Assay Method: The intracellular calcium mobilization assay used 300.19 cells which stably expressed hCXCR4-GFP, as described previously in Pello et al. (2008). Cells were loaded with INDO-I and then pretreated with the 50 μM of the test compound for 60 seconds prior to stimulation of intracellular calcium mobilization with an optimized concentration of CXCL12. […] The value Δ florescence is the difference between (a) the fluorescence ratio from cells before exposure to CXCL12 at its optimized concentration and (b) the fluorescence ratio from cells following stimulation with the optimized concentration of CXCL12. Decreases in Δ florescence correspond to decreases in intracellular calcium mobilization, and therefore, decreased signaling. As CXCL12 concentration was optimized for each test compound, results are presented as normalized Δ florescence which is Δ fluorescence divided by the fluorescence ratio of optimized CXCL12-only stimulation. In some instances, the IC50 concentration (concentration at which intracellular calcium mobilization is reduced to 50% of the Δ fluorescence of the CXCL12 plus DMSO control) of the test compounds was determined. All assays were performed a minimum of four times; error bars represent the standard deviation of the mean.
(Calcium flux is commonly read through the fluorescence of an indicator in the cells.)

The target in data set [2] is T1, BLT1 (Homo sapiens, UniProt Q15722). The experiment in a line: Intracellular calcium mobilization assay, cells expressing BLT1, LTB4. The format is cell-based. The note with it: LTB4-mediated. As for the experimental part:
as §1
At 50 μM test compound concentrations in BLT1-expressing cells, I-44 (0.040) and I-46 (0.017) inhibited intracellular calcium mobilization.

The test system of data set [3] is 300.19 cells. The experiment in a line: Cytotoxicity assay, propidium iodide based flow cytometry. The note with it: for cytotoxicity, percentage of cells staining positive for PI: 50 μM test compound; for cytotoxicity in dose response below 50 μM: 10 μM, 5 μM and 1 μM tested. The format is cell-based. As for the experimental part:
Cytotoxicity Assay Method: To determine the potential for test compound cytotoxicity to influence cell intracellular calcium mobilization and chemotaxis, cell cytotoxicity was assessed using propidium iodide (PI) based flow cytometry. Propidium iodine is impermeable to intact cell membranes and thus its lack of intercalation into DNA (which increases PI fluorescence) is a positive indicator of cell viability. Cytotoxicity values are presented as percentage of cells staining positive for PI. Lower values of fluorescence indicate less cytotoxicity. All assays were performed a minimum of four times; error bars represent the standard deviation of the mean.
On the technique in general: Flow cytometry measures light scatter and fluorescence of single cells or particles in a stream.

Data set [4] concerns HS27 cells. The experiment in a line: MTT cell proliferation assay, HS27. It counts as cell-based, human. The note with it: 4 days, normal fibroblast cell line. How it is done:
(§2) To determine the potential for compounds to impact the proliferation of cells, cell growth was assessed capacity using the 3-(4,5-dimethylthiazol-2-yl)-2,5-diphenyltetrazolium bromide (MTT) assay. The effect of these compounds was determined for four cell lines: HS27, a “normal” fibroblast cell line; MCF7, an estrogen-dependant non-metastatic breast cancer cell line; MDA-MB-231, an estrogen-independent metastatic breast cancer cell line; and A549, a lung cancer cell line. Cells were left untreated, treated with 12.5 mM DMSO, or treated with varying concentrations of four compounds, (I-9, I-25, I-36, and I-37), then incubated for 4 days, before analysis. Absorbance at 490 nm represents proliferating cells. For samples using compounds, these values are normalized to untreated samples.
On the technique in general: Tetrazolium dyes change colour on reduction, which living cells bring about.

Data set [5] has as its system MCF7 cells. Put plainly: MTT cell proliferation assay, MCF7. The format is cell-based, human. To be noted: 4 days; for IC50: Homo sapiens, MCF7, 96 h. As for the experimental part: as §2
Data set [6] relates to MDA-MB-231 cells. Put plainly: MTT cell proliferation assay, MDA-MB-231. The format is cell-based, human. The note with it: 4 days; for IC50: Homo sapiens, MDA-MB-231, 96 h. As for the experimental part: as §2
Data set [7] has as its system A549 cells. Put plainly: MTT cell proliferation assay, A549. The format is cell-based, human. The note with it: 4 days; for IC50: Homo sapiens, A549, 96 h. As for the experimental part:
as §2

The target in data set [8] is T2, hCXCR4-GFP (Homo sapiens, UniProt P61073). Put plainly: Intracellular calcium mobilization assay, hCXCR4-GFP expressing 300.19 cells, CXCL12. It counts as cell-based. The arrangement: IC50 of intracellular calcium mobilization, CXCR4; other: CXCL12-mediated; other: 50 μM test compound; normalized Δ fluorescence (CXCR4, intracellular calcium mobilization); other: 50 μM test compound, 60 seconds pretreatm. The note with it: CXCL12-mediated; read-out: IC50 of intracellular calcium mobilization, CXCR4. As for the experimental part:
as §1

The target of data set [9] is T2, hCXCR4-GFP. Put plainly: Chemotaxis assay, hCXCR4-GFP expressing 300.19 cells, CXCL12. The note with it: for chemotaxis index (CXCR4-mediated): 50 μM test compound plus optimized CXCL12, normalized to CXCL12 plus DMSO control; for IC50: hCXCR4-GFP 300.19 cells, CXCL12. It counts as cell-based. How it is done:
(§3) Cells were suspended in chemotaxis buffer (RPMI 1640, 1% fetal bovine serum, 1 mM HEPES) at a concentration of 1×10^7 cells per ml. Cell chemotaxis was determined by examining the migration of the 300.19 cells in response to administration of 50 μM test compound plus an optimized concentration of CXCL12 using a chemotaxis assay that was previously described in Basu et al. (Basu et al., Critical role for polar residues in coupling leukotriene B4 binding to signal transduction in BLT1, J. Biol. Chem. (2007) Vol. 282, pp. 10005-17). 100 μL of 300.19 cells from the above cell suspension were placed in the upper chamber of a Transwell support (Corning Costar, Cambridge, Mass.) and were separated by a 5 micron filter from a bottom chamber containing 50 μM test compound plus the optimized concentration of CXCL12 in a final bottom chamber volume of 600 μl. After 3 h of incubation at 37° C. in 5% CO2, the upper chamber was removed and cells in the lower chamber were counted in a Bürker chamber. Cell counts for all samples were normalized to a CXCL12 plus DMSO control and results are reported using this normalized measure, referred to herein as the chemotaxis index. In some instances, the IC50 concentration (i.e., the concentration at which the chemotaxis index is reduced to 50% of the chemotaxis index of the CXCL12 plus DMSO control) of the test compounds was determined. All assays were performed a minimum of four times; error bars represent the standard deviation of the mean.

Data set [10] has as its system hCXCR4-GFP. The description is as above. It counts as cell-based, human. The note with it: from chemotaxis indices at 50 μM. How it is done: as §3
In data set [11] the target is T1, BLT1. The experiment in a line: Chemotaxis assay, cells expressing BLT1, LTB4. The format is cell-based. The note with it: 50 μM test compound, LTB4-induced. How it is done: as §3
To examine specificity of some of the compounds for CXCR4, their activity was tested against a non-family member class A G protein-coupled receptor, BLT1. […] I-38 and I-43 inhibited BLT1-mediated chemotaxis (0.23) and (0.045) to about the same extent as CXCR4-mediated chemotaxis (0.21) and (0.064), respectively.

Data set [12] in a line: Test for toxicity in mice. The note with it: i.p. 5 mg/kg, then 20 or 40 mg/kg two days later; observed over 3 weeks. The format is in vivo. As for the experimental part:
Test for Toxicity: Mice were treated by intra-peritoneal injections of three of compounds I-28, I-36, and I-38 at the first dose of 5 mg/kg of body weight, followed by a second injection of either 20 mg/kg of body weight or 40 mg/kg of body weight two days later.

Data set [13] has as its system TC-1 tumor cells. The format is in vivo. To be noted: 5 mg/kg i.p. every day for 21 days; versus PBS or Vehicle controls. From the text:
Development of Animal Model for CXCR4 Dependent Cancer Metastasis in Lungs: To establish a CXCR4 dependent lung tumor metastasis model, we first screened several cancer cell lines that are known to metastasize to lungs in mice models to determine which cancer cell lines endogenously express CXCR4 receptor. The mice cell lines screened were Lewis lung carcinoma, B16F10 melanoma, and TC-1 cervical carcinoma. Mice cell lines were screened using flow cytometry-based surface receptor staining using a fluorochrome labeled antibody to mouse CXCR4 receptor. […] The TC-1 cell line was generated by transfection of murine lung squamous epithelial cells by Human pappillomavirus (HPV) oncogenes E6, E7, and activated Ras.
5 mg/kg body weight of AMD3100, I-28, I-36, or I-38 were also injected at the same dose intra-peritoneal (i.p.) every day for 21 days starting from the day before the tumor cell injection. Mice were sacrificed and lungs were perfused and collected on day 21 post tumor challenge. Lungs were stored in formalin for 16 hrs and then transferred into 70% ethanol until the lung lobes became lucid. All five lung lobes were separated. Tumors were counted using a magnifying glass or a microscope. Tumor sizes were measured using a digital caliper. The total number of tumors counted in all five lung lobes of an individual mouse is reported as the tumor incidence. Mean tumor sizes were added together to calculate cumulative tumor size, which is reported as the tumor burden for each mouse.

T1 sequence (Q15722 whole entry, species assumed): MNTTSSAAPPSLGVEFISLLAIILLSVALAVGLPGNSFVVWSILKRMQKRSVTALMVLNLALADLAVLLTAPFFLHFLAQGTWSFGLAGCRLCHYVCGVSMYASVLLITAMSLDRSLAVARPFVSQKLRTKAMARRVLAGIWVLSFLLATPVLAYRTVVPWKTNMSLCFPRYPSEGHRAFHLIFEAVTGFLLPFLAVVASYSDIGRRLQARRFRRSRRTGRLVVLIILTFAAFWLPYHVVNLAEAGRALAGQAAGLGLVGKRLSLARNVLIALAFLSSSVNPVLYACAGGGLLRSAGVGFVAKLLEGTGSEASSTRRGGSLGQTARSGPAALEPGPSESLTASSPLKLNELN
T2 sequence (P61073 whole entry): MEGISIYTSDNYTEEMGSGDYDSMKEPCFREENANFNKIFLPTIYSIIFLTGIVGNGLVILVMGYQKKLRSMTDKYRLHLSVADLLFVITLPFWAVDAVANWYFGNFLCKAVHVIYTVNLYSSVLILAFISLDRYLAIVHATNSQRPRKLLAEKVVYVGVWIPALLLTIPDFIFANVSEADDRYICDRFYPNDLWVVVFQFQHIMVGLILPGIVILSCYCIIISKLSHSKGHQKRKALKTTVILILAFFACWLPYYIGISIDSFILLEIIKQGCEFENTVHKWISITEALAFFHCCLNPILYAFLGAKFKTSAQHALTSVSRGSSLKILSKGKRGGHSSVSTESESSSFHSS

Take `COc1cc(NCCCC(C)Nc2ccnc3cc4ccccc4cc23)c2ncccc2c1` (centres unmarked) [Compound I-9, N-(5-(6-methoxyquinolin-8-ylamino)pentan-2-yl)benzo[g]quinolin-4-amine]: in data set [1], the “difference between CXCR4- and BLT1-mediated intracellular calcium mobilization” value was “no significant difference”. In addition, the IC50 – broadly, the midpoint of a concentration-inhibition curve – is 20 µM in data set [2]; 5 µM in [5]; 5 µM in [6]; 7.5 µM in [7]; 1 µM in [8]. In data set [3], the “cytotoxicity, percentage of cells staining positive for PI” value (shortened to “cytotoxicity, percentage”) was found to be 81.2%. For the same molecule, the “cytotoxicity in dose response below 50 μM” value in [3] is “no cytotoxicity beyond the initial 50 μM screening concentration”. Besides, the “proliferation inhibition, HS27 (in words)” value in data set [4] is reported as “consistently inhibited cell proliferation even at concentrations nearing 1 μM”.

On to `CN(C)c1cccc(Nc2nc3ccccc3nc2NS(=O)(=O)c2ccc([N+](=O)[O-])cc2)c1` [Compound I-25, N-[3-(3-dimethylaminophenyl)aminoquinoxalin-2-yl]-4-nitro-benzenesulfonamide], for which the “chemotaxis index (CXCR4-mediated)” value in [9] is 0.030. For the same molecule, the “fold greater inhibition of CXCR4-mediated than BLT1-mediated chemotaxis” value in [10] is given as 12 fold. In addition, in data set [11], the “chemotaxis index (BLT1-mediated)” value amounted to 0.38. In addition, the 50% inhibitory concentration (IC50) in data set [2] is 40 µM; in data set [6], 10 µM; in data set [7] it was 10 µM; in [8], 1 µM. For the same molecule, in data set [3], the “cytotoxicity, percentage” value is 23.4%. Further, the “cytotoxicity in dose response below 50 μM” value in [3] is on record as “no cytotoxicity beyond the initial 50 μM screening concentration”. Also, the “proliferation inhibition, HS27 (in words)” value in data set [4] is reported as “marginal proliferation inhibition at higher concentrations”. Further, the “proliferation inhibition, MCF7 (in words)” value in [5] is recorded as “only marginally inhibited cell proliferation of MCF7 cells at high concentrations”.

Take `Cc1ccc(N2C(=O)/C(=C/Nc3ccc(S(=O)(=O)Nc4ccc(O)cc4)cc3)c3ccccc3C2=O)cc1C` [Compound I-28, 4-[[2-(3,4-dimethylphenyl)-1,3-dioxo-4-isoquinolylidene]methylamino]-N-(4-hydroxyphenyl)-benzenesulfonamide]: in [1], the “difference between CXCR4- and BLT1-mediated intracellular calcium mobilization” value is on record as “no significant difference”. The IC50 in data set [2] was 22.5 µM; in data set [8] it was 10 µM. The “apparent toxicity (loss of body weight, signs of physiological distress)” value in data set [12] was “did not induce any apparent toxicity”. In addition, the “TC-1 metastatic tumor incidence and burden in lungs” value in data set [13] was “reduced mice TC-1 metastatic tumor incidence and burden in lungs”.

In the case of `CCn1c2ccccc2c2ccc(Nc3nc4ccccc4nc3NS(=O)(=O)c3ccc(C)cc3)cc21` [Compound I-36, N-[3-(9-ethylcarbazol-2-yl)aminoquinoxalin-2-yl]-4-methyl-benzenesulfonamide], the “chemotaxis index (CXCR4-mediated)” value in data set [9] worked out at 0.12. For the same molecule, the concentration for half-maximal inhibition (IC50) in data set [9] is 1 µM; in data set [5], 12.5 µM; in data set [6] it was 30 µM; in data set [7] it was 22.5 µM. Further, in data set [10], the “fold greater inhibition of CXCR4-mediated than BLT1-mediated chemotaxis” value is on record as 3.5 fold. Moreover, the “chemotaxis index (BLT1-mediated)” value in data set [11] is 0.44. The “cytotoxicity, percentage” value in [3] stood at 21.0%. In data set [3], the “cytotoxicity in dose response below 50 μM” value is “no cytotoxicity beyond the initial 50 μM screening concentration”. Further, in [4], the “proliferation inhibition, HS27 (in words)” value is on record as “marginal proliferation inhibition at higher concentrations”. Further, the “apparent toxicity (loss of body weight, signs of physiological distress)” value in data set [12] is listed as “did not induce any apparent toxicity”. Further, the “TC-1 metastatic tumor incidence and burden in lungs” value in data set [13] is “reduced mice TC-1 metastatic tumor incidence and burden in lungs”.

Regarding `Cc1ccc(NCC(=O)Nc2ncc(Cc3cccc(C(F)(F)F)c3)s2)cc1C` [Compound I-37, 2-(3,4-dimethylphenyl)amino-N-[5-[[3-(trifluoromethyl)phenyl]methyl]thiazol-2-yl]-acetamide], the “proliferation inhibition, HS27 (in words)” value in [4] is “did not inhibit proliferation for any tested cell line”. Besides, the “proliferation inhibition, MCF7 (in words)” value in [5] is “did not inhibit proliferation for any tested cell line”. In [6], the “proliferation inhibition, MDA-MB-231 (in words)” value is on record as “did not inhibit proliferation for any tested cell line”. Also, the “proliferation inhibition, A549 (in words)” value in data set [7] is “did not inhibit proliferation for any tested cell line”.

Take `CN1C/C(=C/c2cccnc2)C(=O)/C(=C/c2cccnc2)C1` [Compound I-43, (3E,5Z)-1-methyl-3,5-bis((pyridin-3-yl)methylene)piperidin-4-one]: in data set [9], the “chemotaxis index (CXCR4-mediated)” value was determined as 0.064 and the IC50 worked out at 20 µM. For the same molecule, the “chemotaxis index (BLT1-mediated)” value in data set [11] was found to be 0.045.
